The results in this text go back to patent US8013153B2, “Substituted pyrimidine kinase inhibitors” (Janssen Pharmaceutica, N.V., priority 2006, dated 2011).

One assay deals with A375 malignant melanoma. As to the kind of experiment: Inhibition of in vitro cell proliferation (A375).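 Further: cells plated for 24 h, given compound for 24 h, then labelled with 14C-thymidine for another 24 h, with DMSO-only wells as control and counts read by scintillation.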 It is filed as cell-based, human.
For the next assay, the target named is T1, murine Aurora-A (Mus musculus, UniProt P97477).
T1 construct: replaced with the full length protein encoding the murine Aurora-A; made in house; host or cells: sf9 insect cells
T1 sequence (P97477 1-395): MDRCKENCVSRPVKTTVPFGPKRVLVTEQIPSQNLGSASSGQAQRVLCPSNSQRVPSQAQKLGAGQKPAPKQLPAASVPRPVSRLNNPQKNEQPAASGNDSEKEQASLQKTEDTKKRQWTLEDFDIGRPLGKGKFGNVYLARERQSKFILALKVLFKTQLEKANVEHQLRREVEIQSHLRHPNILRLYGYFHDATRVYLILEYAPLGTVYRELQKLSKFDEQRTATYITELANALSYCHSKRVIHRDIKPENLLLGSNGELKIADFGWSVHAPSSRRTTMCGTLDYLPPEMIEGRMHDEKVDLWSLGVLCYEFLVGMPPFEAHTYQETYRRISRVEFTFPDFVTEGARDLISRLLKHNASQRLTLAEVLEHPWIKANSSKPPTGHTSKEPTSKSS
As to the kind of experiment: Aurora-A Screening Assay. Type of assay: biochemical. Here is the method: (§1) A kinase reaction mixture was prepared containing 50 mM Tris-HCl pH=8, 10 mM MgCl2, 0.1 mM Na3PO4, 1 mM DTT, 10 μM ATP, 0.025 μM biotinylated histone-H1 peptide substrate and 0.2 μCuries per well ^33P-γ-ATP (2000-3000 Ci/mmol). 70 μL of the kinase reaction mixture was dispensed into the well of a streptavidin coated FlashPlate™ (Cat. # SMP103, NEN, Boston, Mass.). Then 1 μL of test compound stock in 100% DMSO was added to the wells resulting in a final concentration of 1% DMSO in the reaction with a 100 μL final reaction volume.
(§2) The CDK1:Cyclin-B protein was diluted in 50 mM Tris-HCl pH=8.0, 0.1% BSA at a concentration of 1 ng per μL and 30 μL (30 ng enzyme per test well) was added to each well to initiate the reaction. The reaction was incubated for one hour at 30° C. At the end of the 1 hour incubation, the reaction was terminated by aspirating the mixture from the plate and washing the wells twice with PBS containing 100 mM EDTA. The histone-H1 biotinylated peptide substrate became immobilized on the Flashplate™ and the incorporation of ^33P-γ-ATP was measured by reading the plate on a scintillation counter. Inhibition of the enzymatic activity of CDK1 was measured by observing a reduced amount of ^33P-γ-ATP incorporated into the immobilized peptide.
The Aurora-A kinase assay was carried out using the CDK kinase assay procedure except that the enzyme was replaced with the full length protein encoding the murine Aurora-A (Accession #GB BC014711) expressed and purified from sf9 insect cells.

The subject of another assay is HCT-116 colon carcinoma. The assay can be described thus: Inhibition of in vitro cell proliferation (HCT116).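 Further: cells exposed to compound for 24 h, then 14C-thymidine added for a further 24 h and its uptake into DNA counted by scintillation, DMSO-only wells as control.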 Type of assay: cell-based, human.
For a further assay, the target named is T2, HER2 cytoplasmic domain (Homo sapiens, UniProt P04626).
T2 construct: polyhistidine (N)
T2 sequence (P04626 676-1255 limits assumed): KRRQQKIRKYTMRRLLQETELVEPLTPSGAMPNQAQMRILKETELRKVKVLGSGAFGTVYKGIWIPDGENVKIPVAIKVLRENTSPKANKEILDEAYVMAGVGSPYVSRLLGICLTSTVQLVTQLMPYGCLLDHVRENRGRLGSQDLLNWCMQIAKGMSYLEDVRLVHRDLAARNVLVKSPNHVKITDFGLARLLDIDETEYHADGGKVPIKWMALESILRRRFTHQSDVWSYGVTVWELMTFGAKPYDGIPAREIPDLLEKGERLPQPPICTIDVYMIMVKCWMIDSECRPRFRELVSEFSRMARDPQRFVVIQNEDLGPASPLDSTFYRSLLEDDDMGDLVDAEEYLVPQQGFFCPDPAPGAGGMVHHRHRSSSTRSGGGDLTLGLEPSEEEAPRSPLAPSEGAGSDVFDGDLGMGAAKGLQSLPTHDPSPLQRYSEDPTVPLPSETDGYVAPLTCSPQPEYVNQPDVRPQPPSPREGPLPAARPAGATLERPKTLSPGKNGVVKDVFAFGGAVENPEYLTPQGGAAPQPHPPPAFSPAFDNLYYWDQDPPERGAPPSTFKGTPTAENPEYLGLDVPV
As to the kind of experiment: HER2 Kinase Screening Assay. Type of assay: biochemical. The note with it: > means no observed 50% inhibition at the indicated test concentration; ~ means approximately 50% inhibition at that concentration. Here is the method: as §1, §2
The HER2 kinase assay was carried out using the CDK kinase assay procedure except that the enzyme was replaced with a HER2 construct containing a polyhistidine tag at the N-terminus followed by 24 additional amino acids and the HER2 cytoplasmic domain beginning at amino acid 676 (Accession #M11730) to the end.

Assay [1] deals with HeLa cervical adenocarcinoma. The assay can be described thus: Inhibition of in vitro cell proliferation (HeLa).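 Further: cells exposed to compound for 24 h, then labelled 24 h with methyl 14C-thymidine, with uptake into DNA counted by scintillation against DMSO-only control wells.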 Type of assay: cell-based, human. The following applies: 14C-thymidine incorporation.
Assay [2] concerns the target T3, rat VEGF-R2 kinase domain (Rattus norvegicus, UniProt O08775).
T3 construct: amino acids 786-1343 of the rat VEGF-R2 kinase domain; polyhistidine (N)
The assay can be described thus: VEGF-R2 Screening Assay. It is filed as biochemical.

For another assay, the target named is T4, CDK1:Cyclin-B (Homo sapiens, UniProt P06493).
T4 construct: purchased New England Biolabs, Beverly, Mass; 6020; host or cells: insect cells
T4 sequence (P06493 whole entry): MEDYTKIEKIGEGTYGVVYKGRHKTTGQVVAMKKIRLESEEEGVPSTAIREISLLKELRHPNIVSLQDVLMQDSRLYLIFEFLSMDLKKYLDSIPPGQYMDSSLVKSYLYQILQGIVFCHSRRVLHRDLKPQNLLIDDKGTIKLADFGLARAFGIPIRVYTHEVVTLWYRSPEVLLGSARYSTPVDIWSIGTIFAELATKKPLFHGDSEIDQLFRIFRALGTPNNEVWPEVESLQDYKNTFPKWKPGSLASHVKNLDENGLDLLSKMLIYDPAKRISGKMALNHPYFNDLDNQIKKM
T4 sequence (P14635 whole entry partner): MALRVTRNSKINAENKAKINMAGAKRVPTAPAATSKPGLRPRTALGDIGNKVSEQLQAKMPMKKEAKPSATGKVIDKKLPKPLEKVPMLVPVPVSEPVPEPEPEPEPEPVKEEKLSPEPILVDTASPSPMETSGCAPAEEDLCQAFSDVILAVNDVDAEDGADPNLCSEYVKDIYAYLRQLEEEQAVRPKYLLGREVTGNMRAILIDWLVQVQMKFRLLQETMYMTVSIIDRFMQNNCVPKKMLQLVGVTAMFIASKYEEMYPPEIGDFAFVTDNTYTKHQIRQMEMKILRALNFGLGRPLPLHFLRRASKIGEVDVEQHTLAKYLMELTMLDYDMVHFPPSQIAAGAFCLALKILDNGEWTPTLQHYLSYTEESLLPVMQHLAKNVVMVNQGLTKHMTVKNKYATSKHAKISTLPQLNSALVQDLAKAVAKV
The assay can be described thus: CDK1 Screening Assay. It is filed as biochemical. Here is the method: as §1, §2
The CDK1 used was isolated from insect cells expressing both the human CDK1 catalytic subunit and its positive regulatory subunit cyclin B (New England Biolabs, Beverly, Mass., Cat. #6020).

Setting [3] is: Homo sapiens, A-375, 14C-thymidine incorporation.
Setting [4] is: Homo sapiens, HCT-116, 14C-thymidine incorporation.
Where [5] appears, read: > means no observed 50% inhibition at the indicated test concentration, ~ means approximately 50% inhibition at that concentration, read-out: IC50 VEGF-R2.

Read-outs that look alike come from different tables or passages of the source.

T3 sequence (O08775 786-1343): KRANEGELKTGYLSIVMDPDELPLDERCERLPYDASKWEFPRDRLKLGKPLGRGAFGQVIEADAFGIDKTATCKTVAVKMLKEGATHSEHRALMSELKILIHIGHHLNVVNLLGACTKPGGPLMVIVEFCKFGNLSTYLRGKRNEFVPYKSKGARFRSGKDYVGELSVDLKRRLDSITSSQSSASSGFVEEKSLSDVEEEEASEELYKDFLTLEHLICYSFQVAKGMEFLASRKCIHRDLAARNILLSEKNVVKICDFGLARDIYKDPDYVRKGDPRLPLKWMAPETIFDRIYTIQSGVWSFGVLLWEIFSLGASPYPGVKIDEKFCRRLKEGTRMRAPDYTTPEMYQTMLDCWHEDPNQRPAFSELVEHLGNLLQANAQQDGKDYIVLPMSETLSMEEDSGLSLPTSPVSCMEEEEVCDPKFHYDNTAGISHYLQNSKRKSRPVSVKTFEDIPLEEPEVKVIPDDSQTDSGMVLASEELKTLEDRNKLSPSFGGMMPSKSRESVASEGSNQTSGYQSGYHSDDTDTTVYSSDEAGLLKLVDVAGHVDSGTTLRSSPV

In the case of `CON=Cc1c(N)ncnc1Oc1ccc(NC(C)=O)c(Cl)c1` [Cpd 94, N-{4-[6-amino-5-(methoxyimino-methyl)-pyrimidin-4-yloxy]-2-chloro-phenyl}-acetamide], the IC50 was 2.69 µM in the assay with A375 malignant melanoma (setting [3]); above 100 µM against murine Aurora-A; 3.62 µM in the assay with HCT-116 colon carcinoma (setting [4]); above 100 µM against HER2 cytoplasmic domain; 4.02 µM in assay [1] (Homo sapiens); 2.21 µM in assay [2] (setting [5]). On CDK1:Cyclin-B, this compound had an IC50 above 100 µM.
In the case of `CON=Cc1c(N)ncnc1Oc1ccc(CC(=O)Nc2ccccc2)cc1` [Cpd 97, 2-{4-[6-amino-5-(methoxyimino-methyl)-pyrimidin-4-yloxy]-phenyl}-N-phenyl-acetamide], the IC50 with A375 malignant melanoma (setting [3]) is above 10 µM; at murine Aurora-A it was above 100 µM; in the assay with HCT-116 colon carcinoma (setting [4]), above 10 µM; against HER2 cytoplasmic domain, 1.31 µM; in assay [1] (Homo sapiens), above 10 µM; in assay [2] (setting [5]) it was 0.0407 µM. For the same compound, the IC50 against CDK1:Cyclin-B was above 100 µM.
Regarding `CON=Cc1c(N)ncnc1Oc1ccc(NC(=O)OC)c(Cl)c1` [Cpd 95, {4-[6-amino-5-(methoxyimino-methyl)-pyrimidin-4-yloxy]-2-chloro-phenyl}-carbamic acid methyl ester], the IC50 in the assay with A375 malignant melanoma (setting [3]) was 3.5 µM; against murine Aurora-A, above 100 µM; in the assay with HCT-116 colon carcinoma (setting [4]) it was 3.77 µM; at HER2 cytoplasmic domain, above 10 µM; in assay [1] (Homo sapiens), 4.95 µM; in assay [2] (setting [5]), 0.152 µM. At CDK1:Cyclin-B, this compound gave an IC50 above 100 µM.
With `CON=Cc1c(N)ncnc1Oc1ccc(NC(=O)Nc2ccc(F)cc2)c(Br)c1` [Cpd 74, 1-{4-[6-amino-5-(methoxyimino-methyl)-pyrimidin-4-yloxy]-2-bromo-phenyl}-3-(4-fluoro-phenyl)-urea], the IC50 in the assay on A375 malignant melanoma (setting [3]) is above 10 µM; at murine Aurora-A, above 100 µM; in the assay with HCT-116 colon carcinoma (setting [4]), above 100 µM; at HER2 cytoplasmic domain it was above 1 µM; in assay [1] (Homo sapiens) it was above 100 µM; in assay [2] (setting [5]) it was around 100 µM. At CDK1:Cyclin-B, this compound gave a concentration for half-maximal inhibition (IC50) above 100 µM.
For `CNC(=O)Nc1ccc(Oc2ncnc(N)c2C=NOC)cc1F` [Cpd 72, 1-{4-[6-amino-5-(methoxyimino-methyl)-pyrimidin-4-yloxy]-2-fluoro-phenyl}-3-methyl-urea], the IC50 with A375 malignant melanoma (setting [3]) is above 10 µM; at murine Aurora-A it was above 100 µM; with HCT-116 colon carcinoma (setting [4]) it was above 10 µM; against HER2 cytoplasmic domain, above 10 µM; in assay [1] (Homo sapiens) it was above 10 µM; in assay [2] (setting [5]), 0.142 µM. Also, the IC50 at CDK1:Cyclin-B is above 100 µM.
Turning to `CON=Cc1c(N)ncnc1Oc1ccc(NC(=O)Nc2cccc(Cl)c2)c(Cl)c1` [Cpd 59, 1-{4-[6-amino-5-(methoxyimino-methyl)-pyrimidin-4-yloxy]-2-chloro-phenyl}-3-(3-chloro-phenyl)-urea], the IC50 in the assay on A375 malignant melanoma (setting [3]) is above 10 µM; against murine Aurora-A, above 100 µM; in the assay on HCT-116 colon carcinoma (setting [4]), above 10 µM; at HER2 cytoplasmic domain, above 1 µM; in assay [1] (Homo sapiens) it was above 10 µM; in assay [2] (setting [5]), 0.003 µM. This compound also gave an IC50 against CDK1:Cyclin-B above 100 µM.
As to `CON=Cc1c(N)ncnc1Oc1ccc(NC(=O)NCc2ccc(F)cc2F)c(Cl)c1` [Cpd 78, 1-{4-[6-amino-5-(methoxyimino-methyl)-pyrimidin-4-yloxy]-2-chloro-phenyl}-3-(2,4-difluoro-benzyl)-urea], the IC50 with A375 malignant melanoma (setting [3]) is above 100 µM; on murine Aurora-A, above 100 µM; in the assay with HCT-116 colon carcinoma (setting [4]), above 100 µM; on HER2 cytoplasmic domain, above 100 µM; in assay [1] (Homo sapiens), above 100 µM; in assay [2] (setting [5]), 0.0103 µM. In addition, the IC50 against CDK1:Cyclin-B was above 100 µM.
Regarding `CON=Cc1c(N)ncnc1Oc1ccc(NC(=O)Nc2ncc(C)s2)c(Cl)c1` [Cpd 90, 1-{4-[6-amino-5-(methoxyimino-methyl)-pyrimidin-4-yloxy]-2-chloro-phenyl}-3-(5-methyl-thiazol-2-yl)-urea], the half-inhibitory concentration (IC50) in the assay with A375 malignant melanoma (setting [3]) is above 10 µM; on murine Aurora-A, above 10 µM; in the assay on HCT-116 colon carcinoma (setting [4]) it was above 10 µM; at HER2 cytoplasmic domain, above 1 µM; in assay [1] (Homo sapiens), above 100 µM; in assay [2] (setting [5]), 0.037 µM. At CDK1:Cyclin-B, this compound gave an IC50 above 100 µM.
With `CON=Cc1c(N)ncnc1Oc1ccc(NC(=O)Nc2ccc(F)cc2F)c(Cl)c1` [Cpd 61, 1-{4-[6-amino-5-(methoxyimino-methyl)-pyrimidin-4-yloxy]-2-chloro-phenyl}-3-(2,4-difluoro-phenyl)-urea], the IC50 in the assay with A375 malignant melanoma (setting [3]) is above 100 µM; against murine Aurora-A it was above 100 µM; in the assay with HCT-116 colon carcinoma (setting [4]), above 10 µM; against HER2 cytoplasmic domain, above 100 µM; in assay [1] (Homo sapiens), above 100 µM; in assay [2] (setting [5]) it was 0.003 µM. This compound also showed a half-inhibitory concentration (IC50) against CDK1:Cyclin-B above 100 µM.
Take `CON=Cc1c(N)ncnc1Oc1ccc2c(c1)cc(C)n2C(=O)NCCCO` [Cpd 40, 5-[6-amino-5-(methoxyimino-methyl)-pyrimidin-4-yloxy]-2-methyl-indole-1-carboxylic acid (3-hydroxy-propyl)-amide]: the IC50 was 2.59 µM in the assay on A375 malignant melanoma (setting [3]); above 100 µM at murine Aurora-A; 4.54 µM in the assay with HCT-116 colon carcinoma (setting [4]); above 10 µM against HER2 cytoplasmic domain; 4.24 µM in assay [1] (Homo sapiens); 0.0304 µM in assay [2] (setting [5]). Also, the IC50 at CDK1:Cyclin-B came out at 28 µM.
Consider `Cc1cc2c(F)c(Oc3ncnc(N)c3C=NOCCCCN3CCCCC3)ccc2[nH]1` [Cpd 24, 4-amino-6-(4-fluoro-2-methyl-1H-indol-5-yloxy)-pyrimidine-5-carbaldehyde O-(4-piperidin-1-yl-butyl)-oxime], for which the IC50 in the assay with A375 malignant melanoma (setting [3]) was above 100 µM; at murine Aurora-A, above 100 µM; in the assay with HCT-116 colon carcinoma (setting [4]) it was above 100 µM; against HER2 cytoplasmic domain, 0.282 µM; in assay [1] (Homo sapiens) it was above 100 µM; in assay [2] (setting [5]) it was 0.085 µM. On CDK1:Cyclin-B, this compound yielded a half-inhibitory concentration (IC50) above 100 µM.
As to `CON=Cc1c(N)ncnc1Oc1ccc(NC(=O)Nc2ccncc2)c(Cl)c1` [Cpd 88, 1-{4-[6-amino-5-(methoxyimino-methyl)-pyrimidin-4-yloxy]-2-chloro-phenyl}-3-pyridin-4-yl-urea], the IC50 was 4.34 µM with A375 malignant melanoma (setting [3]); above 10 µM on murine Aurora-A; 4.69 µM in the assay on HCT-116 colon carcinoma (setting [4]); above 10 µM at HER2 cytoplasmic domain; 7.39 µM in assay [1] (Homo sapiens); 0.011 µM in assay [2] (IC50 VEGF-R2). The compound also returned an IC50 against CDK1:Cyclin-B above 100 µM.
Consider `C#CCNC(=O)Nc1ccc(Oc2ncnc(N)c2C=NOC)cc1Cl` [Cpd 79, 1-{4-[6-amino-5-(methoxyimino-methyl)-pyrimidin-4-yloxy]-2-chloro-phenyl}-3-prop-2-ynyl-urea], for which the IC50 with A375 malignant melanoma (setting [3]) was 2.2 µM; on murine Aurora-A, above 100 µM; in the assay on HCT-116 colon carcinoma (setting [4]) it was 3.72 µM; against HER2 cytoplasmic domain it was above 100 µM; in assay [1] (Homo sapiens) it was 3.58 µM; in assay [2] (setting [5]) it was 0.0275 µM. The same compound returned an IC50 at CDK1:Cyclin-B above 100 µM.
Regarding `CON=Cc1c(N)ncnc1Oc1ccc(NC(=O)Nc2ccc(OC)cc2)c(Cl)c1` [Cpd 62, 1-{4-[6-amino-5-(methoxyimino-methyl)-pyrimidin-4-yloxy]-2-chloro-phenyl}-3-(4-methoxy-phenyl)-urea], the IC50 with A375 malignant melanoma (14C-thymidine incorporation) is above 100 µM; against murine Aurora-A, above 100 µM; in the assay with HCT-116 colon carcinoma (14C-thymidine incorporation) it was above 100 µM; against HER2 cytoplasmic domain it was above 100 µM; in assay [1], above 100 µM; in assay [2] (setting [5]), 0.0016 µM. The IC50 on CDK1:Cyclin-B was above 100 µM.
